Assay results from US20230022488A1, “Laundry Composition” (FIRMENICH SA, priority 2019, published 2023).

Tested on: panelist
Assay: Odor threshold concentration (Log T / Log ODT) by gas chromatograph with sniff port
Set-up: species or system human
Procedure: “High impact perfume raw materials” should be understood as perfume raw materials having a Log T<−4. The odor threshold concentration of a chemical compound is determined in part by its shape, polarity, partial charges and molecular mass. For convenience, the threshold concentration is presented as the common logarithm of the threshold concentration, i.e., Log [Threshold] (“Log T”).
The odor threshold concentration of a perfuming compound is determined by using a gas chromatograph (“GC”). Specifically, the gas chromatograph is calibrated to determine the exact volume of the perfume oil ingredient injected by the syringe, the precise split ratio, and the hydrocarbon response using a hydrocarbon standard of known concentration and chain-length distribution. The air flow rate is accurately measured and, assuming the duration of a human inhalation to last 12 seconds, the sampled volume is calculated. […] To determine the threshold concentration, solutions are delivered to the sniff port at the back-calculated concentration. A panelist sniffs the GC effluent and identifies the retention time when odor is noticed. The average across all panelists determines the odor threshold concentration of the perfuming compound. The determination of odor threshold is described in more detail in C.

[1] = ingredient of Perfume oil C (Table 5)
[2] = ingredient of Perfume oil A (Table 1)
[3] = ingredient of Perfume oil B (Table 3)
[4] = ingredient of Perfume oil D (Table 7)

Molecule	Log ODT [1]	Log ODT [2]	Log ODT [3]	Log ODT [4]
1-OXA-12-CYCLOHEXADECEN-2-ONE (A) + 1-OXA-13-CYCLOHEXADECEN-2-ONE (B)	>−4	–	–	–
2-METHYLBUTYL SALICYLATE (A) + PENTYL SALICYLATE (B)	–	>−4	–	–
3,5,6-TRIMETHYL-3-CYCLOHEXENE-1-CARBALDEHYDE (A) + 2,4,6-TRIMETHYL-3-CYCLOHEXENE-1-CARBALDEHYDE (B)	>−4	–	–	–
3,7-DIMETHYL-2,6-NONADIENENITRILE (A) + 3,7-DIMETHYL-3,6-NONADIENENITRILE (B)	>−4	–	–	–
3-(4-ETHYLPHENYL)-2,2-DIMETHYLPROPANAL (A) + 3-(2-ETHYLPHENYL)-2,2-DIMETHYLPROPANAL (B)	–	–	>−4	–
10-UNDECENAL (A) + (9E)-9-UNDECENAL (B) + (9Z)-9-UNDECENAL (C)	<−4	–	<−4	–
CC(C)c1cccc(C(C)CC=O)c1 (racemic) [(+−)-3-(3-ISOPROPYL-1-PHENYL)BUTANAL]	–	–	<−4	–
CCCCC[C@H]1C(=O)CC[C@@H]1CC(=O)OC (racemic) [METHYL 2-((1RS,2RS)-3-OXO-2-PENTYLCYCLOPENTYL) ACETATE]	>−4	>−4	–	–
c1ccc(Oc2ccccc2)cc1 [1,1′-OXYDIBENZENE]	–	>−4	–	–
(1 RS,2RS)-2,4-DIMETHYL-3-CYCLOHEXENE-1-CARBALDEHYDE (A) + (1 RS,2SR)-2,4-DIMETHYL-3-CYCLOHEXENE-1-CARBALDEHYDE (B)	>−4	>−4	–	–
(2RS,4SR)-4-METHYL-2-(2-METHYL-1-PROPEN-1-YL)TETRAHYDRO-2H-PYRAN (A) + (2RS,4RS)-4-METHYL-2-(2-METHYL-1-PROPEN-1-YL)TETRAHYDRO-2H-PYRAN (B)	–	>−4	>−4	–
(2Z)-1,1-DIETHOXY-3,7-DIMETHYL-2,6-OCTADIENE (A) + (2E)-1,1-DIETHOXY-3,7-DIMETHYL-2,6-OCTADIENE (B)	–	–	>−4	>−4
(+)-(3S)-3-[(1R)-4-METHYL-3-CYCLOHEXEN-1-YL]BUTANAL (A) + (+)-(3R)-3-[(1R)-4-METHYL-3-CYCLOHEXEN-1-YL]BUTANAL	–	–	–	>−4
(+−)-4-METHYLENE-2-PHENYLTETRAHYDRO-2H-PYRAN (A) + (+−)-4-METHYL-6-PHENYL-3,6-DIHYDRO-2H-PYRAN (B) + (+−)-4-METHYL-2-PHENYL-3,6-DIHYDRO-2H-PYRAN (C)	–	–	<−4	<−4
(+−)-(3E)-3-METHYL-4-(2,6,6-TRIMETHYL-2-CYCLOHEXEN-1-YL)-3-BUTEN-2-ONE (A) + (+−)-(1E)-1-(2,6,6-TRIMETHYL-2-CYCLOHEXEN-1-YL)-1-PENTEN-3-ONE (B)	<−4	–	–	–
.ALPHA.-DIHYDROTERPINEOL (A) + .BETA.-DIHYDROTERPINEOL (B)	–	–	>−4	–
TRICYCLO[5.2.1.0~2,6~]DEC-3-EN-8-YL ACETATE (A) + TRICYCLO[5.2.1.0~2,6~]DEC-4-EN-8-YL ACETATE (B)	–	>−4	>−4	–
